Measurements published in ChEMBL document CHEMBL1137914, “Optimizing the antibacterial activity of a lead structure discovered by "SAR by MS" technology” (Bioorg Med Chem Lett, 2004).

How the values were obtained:
[1] = test system: Escherichia coli; assay: (§1) In vitro dissociation constant of compound required for inhibition of Escherichia coli translation was determined; type: functional, organism-based
[2] = test system: Escherichia coli; assay: In vitro dissociation constant of compound required for inhibition of Escherichia coli translation by 50% was determined; type: functional
[3] = test system: Staphylococcus aureus; assay: Antibacterial activity against Staphylococcus aureus was determined at 100 uM; type: functional
[4] = test system: Escherichia coli; assay: Antibacterial activity against Escherichia coli was determined at 100 uM; type: functional
[5] = test system: Escherichia coli; assay: as §1; type: functional
[6] = test system: Staphylococcus aureus; assay: Minimal inhibitory concentration required against Staphylococcus aureus ATCC 13709 was determined; values ranges from […]; type: functional
[7] = test system: Escherichia coli; assay: Minimal inhibitory concentration required against Escherichia coli ATCC 25922 was determined; values ranges from 6-13; type: functional
[8] = test system: Escherichia coli; assay: Minimal inhibitory concentration required against Escherichia coli ATCC 25922 was determined; values ranges from 13-25; type: functional
[9] = test system: Staphylococcus aureus; assay: Minimal inhibitory concentration required against Staphylococcus aureus ATCC 13709 was determined; type: functional
[10] = test system: Escherichia coli; assay: Minimal inhibitory concentration required against Escherichia coli ATCC 25922 was determined; values ranges from 25-50; type: functional
[11] = test system: Staphylococcus aureus; assay: Minimal inhibitory concentration required against Staphylococcus aureus ATCC 13709 was determined; values ranges from 50-100; type: functional
[12] = test system: Staphylococcus aureus; assay: Minimal inhibitory concentration required against Staphylococcus aureus ATCC 13709 was determined; values ranges from 3-6; type: functional
[13] = test system: Enterococcus faecalis; assay: Minimal inhibitory concentration required against Enterococcus faecalis was determined; values ranges from 3-6
[14] = test system: Streptococcus pyogenes; assay: Minimal inhibitory concentration required against Streptococcus pyogenes was determined; values ranges from 3-6
[15] = test system: Proteus vulgaris; assay: Minimal inhibitory concentration required against Proteus vulgaris was determined; values ranges from 50-100

SMILES	IC50 [1]	inhibition at 100 µM [3]	inhibition at 100 µM [4]	other results
C=CCNC(=O)c1ccc2nc(O)c(O)nc2c1	–	–	–	Kd [5]: 150 µM
CN(C)CCCOc1ccc(C(NC(=O)c2ccc3nc(O)c(O)nc3c2)C(=O)N2CCNCC2)cc1 (configuration not stated)	> 200 µM	< 75%	< 75%	–
NCC[C@@H](NC(=O)c1ccc(-c2ccccc2)o1)C(=O)N1CCNCC1	–	–	–	Kd [5]: 50 µM
Cc1nc2ccc(C(=O)Nc3cccc(-c4ccc(C(=O)NC(C(=O)N5CCNCC5)c5ccc(OCCCN(C)C)cc5)o4)c3)cc2nc1C (configuration not stated)	1 µM	< 75%	< 75%	–
CN(C)CCCOc1ccc(C(NC(=O)c2ccc(-c3cccc(N)c3)o2)C(=O)N2CCNCC2)cc1 (configuration not stated)	> 100 µM	< 75%	< 75%	–
CN(C)CCCOc1ccc(C(NC(=O)c2ccc(-c3cccc(NC(=O)C4CCCCC4)c3)o2)C(=O)N2CCNCC2)cc1 (configuration not stated)	> 100 µM	< 75%	< 75%	–
CN(C)CCCOc1ccc(C(NC(=O)c2ccc(-c3cccc(NC(=O)c4ccc5cc(Br)ccc5c4)c3)o2)C(=O)N2CCNCC2)cc1 (configuration not stated)	5 µM	–	–	MIC [6]: < 25 µM; MIC [7]: < 13 µM
CCc1c(C)nc2ccc(C(=O)Nc3cccc(-c4ccc(C(=O)NC(C(=O)N5CCNCC5)c5ccc(OCCCN(C)C)cc5)o4)c3)cc2c1Cl (configuration not stated)	0.78 µM	–	–	MIC [8]: < 25 µM; MIC [9]: > 100 µM
CN(C)CCCOc1ccc(C(NC(=O)c2ccc(-c3cccc(NC(=O)c4ccccc4)c3)o2)C(=O)N2CCNCC2)cc1 (configuration not stated)	40 µM	< 75%	< 75%	–
CN(C)CCCOc1ccc(C(NC(=O)c2ccc(-c3cccc(NC(=O)c4ccc5nc(O)c(O)nc5c4)c3)o2)C(=O)N2CCNCC2)cc1 (configuration not stated)	3 µM	< 75%	< 75%	–
CN(C)CCCOc1ccc(C(NC(=O)c2ccc(-c3cccc(NS(=O)(=O)c4ccc5nc(O)c(O)nc5c4)c3)o2)C(=O)N2CCNCC2)cc1 (configuration not stated)	33 µM	< 75%	< 75%	–
CN(C)CCCOc1ccc(C(NC(=O)c2ccc(-c3cccc(NC(=O)c4ccc5ccccc5c4)c3)o2)C(=O)N2CCNCC2)cc1 (configuration not stated)	10 µM	–	–	MIC [10]: < 50 µM; MIC [11]: < 100 µM
CN(C)CCCOc1ccc(C(NC(=O)c2ccc(-c3cccc(NC(=O)c4ccccc4I)c3)o2)C(=O)N2CCNCC2)cc1 (configuration not stated)	38 µM	< 75%	< 75%	–
CN(C)CCCOc1ccc(C(NC(=O)c2ccc(-c3cccc(NC(=O)c4cnc5ccccc5c4)c3)o2)C(=O)N2CCNCC2)cc1 (configuration not stated)	5 µM	< 75%	< 75%	–
Cc1cc(Cl)c2cc(C(=O)Nc3cccc(-c4ccc(C(=O)NC(C(=O)N5CCNCC5)c5ccc(OCCCN(C)C)cc5)o4)c3)ccc2n1 (configuration not stated)	2 µM	< 75%	< 75%	–
CN(C)CCCOc1ccc(C(NC(=O)c2ccc(-c3cccc(NC(=O)c4ccc5ncccc5c4)c3)o2)C(=O)N2CCNCC2)cc1 (configuration not stated)	6 µM	< 75%	< 75%	–
CN(C)CCCOc1ccc(C(NC(=O)c2ccc(-c3cccc(NC(=O)c4ccccn4)c3)o2)C(=O)N2CCNCC2)cc1 (configuration not stated)	20 µM	< 75%	< 75%	–
CN(C)CCCOc1ccc(C(NC(=O)c2ccc(-c3cccc(NC(=O)CCCN(C)C)c3)o2)C(=O)N2CCNCC2)cc1 (configuration not stated)	> 100 µM	< 75%	< 75%	–
CN(C)CCCOc1ccc(C(NC(=O)c2ccc(-c3cccc(NC(=O)c4cnccn4)c3)o2)C(=O)N2CCNCC2)cc1 (configuration not stated)	15 µM	< 75%	< 75%	–
CN(C)CCCOc1ccc(C(NC(=O)c2ccc(-c3cccc(NC(=O)c4ccc5nc(O)c(O)nc5c4)c3)o2)C(N)=O)cc1 (configuration not stated)	10 µM	< 75%	< 75%	–
CN(C)CCCOc1ccc(C(NC(=O)c2ccc(-c3cccc(NC(=O)c4ccc(-c5ccccc5)cc4)c3)o2)C(=O)N2CCNCC2)cc1 (configuration not stated)	9 µM	–	–	MIC [12]: < 6 µM; MIC [13]: < 6 µM; MIC [14]: < 6 µM; MIC [15]: < 100 µM; MIC [7]: < 13 µM
CN(C)CCCOc1ccc(C(NC(=O)c2ccc(-c3cccc(NC(=O)c4ccc(Br)cc4)c3)o2)C(=O)N2CCNCC2)cc1 (configuration not stated)	5 µM	–	–	MIC [6]: < 25 µM; MIC [7]: < 13 µM
CN(C)CCCOc1ccc(C(NC(=O)c2ccc(-c3cccc(NC(=O)c4ccc(Cl)c(Cl)c4)c3)o2)C(=O)N2CCNCC2)cc1 (configuration not stated)	4 µM	< 75%	< 75%	–

Continued, in another order:

IC50 [1]	SMILES	inhibition at 100 µM [3]	inhibition at 100 µM [4]	other results
14 µM	NCC[C@@H](NC(=O)c1ccc(-c2cccc(NC(=O)c3ccc4nc(O)c(O)nc4c3)c2)o1)C(=O)N1CCNCC1	< 75%	< 75%	Kd [2]: 6.5 µM
46 µM	NCC[C@@H](NC(=O)c1ccc(-c2cccc(NC(=O)c3cnc4ccccc4c3)c2)o1)C(=O)N1CCNCC1	< 75%	< 75%	–
> 100 µM	CN(C)CCCC(=O)Nc1cccc(-c2ccc(C(=O)N[C@H](CCN)C(=O)N3CCNCC3)o2)c1	< 75%	< 75%	–
> 100 µM	NCC[C@@H](NC(=O)c1ccc(-c2cccc(NC(=O)c3ccccn3)c2)o1)C(=O)N1CCNCC1	< 75%	< 75%	–
> 100 µM	NCC[C@@H](NC(=O)c1ccc(-c2cccc(N)c2)o1)C(=O)N1CCNCC1	< 75%	< 75%	–
> 100 µM	NCC[C@@H](NC(=O)c1ccc(-c2cccc(NC(=O)c3nncs3)c2)o1)C(=O)N1CCNCC1	< 75%	< 75%	–
15 µM	Cc1nc2ccc(C(=O)Nc3cccc(-c4ccc(C(=O)N[C@H](CCN)C(=O)N5CCNCC5)o4)c3)cc2nc1C	< 75%	< 75%	–
> 100 µM	NCC[C@@H](NC(=O)c1ccc(-c2cccc(NC(=O)c3cnccn3)c2)o1)C(=O)N1CCNCC1	< 75%	< 75%	–
> 100 µM	CC(=O)Nc1cccc(-c2ccc(C(=O)NC(C(=O)N3CCNCC3)c3ccc(OCCCN(C)C)cc3)o2)c1 (configuration not stated)	< 75%	< 75%	–
> 100 µM	NCC[C@@H](NC(=O)c1ccc(-c2cccc(NS(=O)(=O)c3ccc4nc(O)c(O)nc4c3)c2)o1)C(=O)N1CCNCC1	< 75%	< 75%	–
13 µM	CN(C)CCCOc1ccc(C(NC(=O)c2ccc(-c3cccc(NC(=O)c4nncs4)c3)o2)C(=O)N2CCNCC2)cc1 (configuration not stated)	< 75%	< 75%	–
